Source: ChEMBL document CHEMBL5380773, “Novel Feleucin-K3-Derived Peptides Modified with Sulfono-γ-AA Building Blocks Targeting Pseudomonas aeruginosa and Methicillin-Resistant Staphylococcus aureus Infections” (J Med Chem, 2023)
Active and inactive are the calls of the source. The rule behind the calls is not given here. Numbered stars: 1 amine (or outer) side, 2 acyl side, 3 side chain; on linkers, the order of the positions; unused ones are H or OH. Square brackets hold non-standard residues; d marks the D form. Peptide text beside a SMILES is read from it. * marks the point of attachment. X26 = O=C(O)c1cc(NC(=S)c2ccc(S(=O)(=O)*)cc2)ccc1-c1c2ccc(=O)cc-2oc2cc(O)ccc12; X14 = CC(C)C[C@@H](CN(CC(N)=O)S(=O)(=O)c1c(C(C)C)cc(C(C)C)cc1C(C)C)N*; X12 = NC(=O)CN(C[C@H](Cc1ccccc1)N*)S(=O)(=O)c1ccc([N+](=O)[O-])cc1; X11 = CC(C)C[C@@H](CN(CC(N)=O)S(=O)(=O)c1ccc([N+](=O)[O-])cc1)N*; X17 = CC(C)C[C@@H](CN(CC(N)=O)S(=O)(=O)c1ccccc1[N+](=O)[O-])N*; X18 = NC(=O)CN(C[C@H](Cc1ccccc1)N*)S(=O)(=O)c1ccc(Cl)cc1; X15 = NC(=O)CN(C[C@H](Cc1ccccc1)N*)S(=O)(=O)c1ccc(I)cc1; X23 = NC(=O)CN(C[C@H](Cc1ccccc1)N*)S(=O)(=O)c1ccc(F)cc1; X22 = CC(C)C[C@@H](CN(CC(N)=O)S(=O)(=O)c1ccc(F)cc1)N*; X6 = COc1ccc(S(=O)(=O)N(CC(N)=O)C[C@H](CC(C)C)N*)cc1; X8 = CC(C)C[C@@H](CN(CC(N)=O)S(=O)(=O)c1ccc(I)cc1)N*; Benzenesulfonyl(4-OMe) = COc1ccc(S(=O)(=O)*)cc1; Benzenesulfonyl(4-F) = O=S(=O)(c1ccc(F)cc1)*; X3 = N[C@@H](Cc1ccccc1)CN(CC(=O)[*:2])[*:1]; X2 = CC(C)C[C@H](N)CN(CC(=O)[*:2])[*:1]; X10 = O=[N+]([O-])c1ccc(S(=O)(=O)*)cc1; X20 = O=S(=O)(c1ccc(Cl)cc1)*; Tos = Cc1ccc(S(=O)(=O)*)cc1

Experiments:
Erythrocyte = assay: Hemolytic activity against mouse red blood cells incubated for 1 hr; assay type: toxicity, cell-based
[1] = Stability in mouse serum assessed as half life incubated for 6 hrs by HPLC analysis; assay type: ADME, cell-free
Staphylococcus aureus [2] = assay: Induction of resistant development in Staphylococcus aureus ATCC 25923 assessed as fold increase by serial passage assay; assay type: functional
Staphylococcus aureus [3] = assay: Induction of resistant development in methicillin resistant Staphylococcus aureus ATCC 33591 assessed as fold increase by serial passage assay; assay type: functional
Pseudomonas aeruginosa [4] = assay: Antimicrobial activity against multidrug resistant Pseudomonas aeruginosa ATCC 27853 assessed as fold increase incubated for 18 hrs by microdilution method; assay type: functional
Pseudomonas aeruginosa [5] = assay: Induction of resistant development in Pseudomonas aeruginosa ATCC 27853 assessed as fold increase in MIC after 20 days; assay type: functional; conditions: time 20 day
Cell membrane = assay: Induction of membrane disruption in Pseudomonas aeruginosa ATCC 27853 after 30 mins by confocal laser scanning microscopic analysis; assay type: subcellular
Staphylococcus aureus [6] = assay: Antimicrobial activity against methicillin resistant Staphylococcus aureus ATCC 33591 infected in BALB/c mouse assessed as reduction in sessile bacteria attached on catheters surface at 0.25 to 1 mg/kg infected with bacteria for 2 hrs prior to compound addition on 1, 24 and 48 hrs and measured after 72 hrs […]; assay type: functional, organism-based; conditions: dose 0.25-1 mg/kg

Compound | MHC (Erythrocyte) [µg/mL] | also measured
H-FLKLLKKLL-NH2 | 256 | half-life [1]: 76.8 min
Cc1ccc(S(=O)(=O)N(CC(=O)N[C@@H](CCCCN)C(=O)N[C@@H](CC(C)C)C(=O)N[C@@H](CC(C)C)C(=O)N[C@@H](CCCCN)C(=O)N[C@@H](CCCCN)C(=O)N[C@@H](CC(C)C)C(=O)N[C@@H](CC(C)C)C(N)=O)C[C@@H](N)Cc2ccccc2)cc1 (Tos-[X3]KLLKKLL-NH2) | 256 | half-life [1]: 418 min
CC1(C)S[C@@H]2[C@H](NC(=O)[C@H](N)c3ccc(O)cc3)C(=O)N2[C@H]1C(=O)O [AMOXICILLIN] | – | fold change (FC) (Staphylococcus aureus [2]): 4096; fold change (FC) (Staphylococcus aureus [3]): 4096
CC(C)C[C@H](N)CN(CC(=O)N[C@@H](CCCCN)C(=O)N[C@@H](CC(C)C)C(=O)N[C@@H](CC(C)C)C(=O)N[C@@H](CCCCN)C(=O)N[C@@H](CCCCN)C(=O)N[C@@H](CC(C)C)C(=O)N[C@@H](CC(C)C)C(N)=O)S(=O)(=O)c1ccc(Cl)cc1 (X20-[X2]KLLKKLL-NH2) | 256 | –
CC(C)C[C@@H](CN(CC(N)=O)S(=O)(=O)c1ccccc1[N+](=O)[O-])NC(=O)[C@H](CCCCN)NC(=O)[C@H](CCCCN)NC(=O)[C@H](CC(C)C)NC(=O)[C@H](CC(C)C)NC(=O)[C@H](CCCCN)NC(=O)[C@H](CC(C)C)NC(=O)[C@@H](N)Cc1ccccc1 (H-FLKLLKK-X17) | 256 | –
CC(C)C[C@H](N)CN(CC(=O)N[C@@H](CCCCN)C(=O)N[C@@H](CC(C)C)C(=O)N[C@@H](CC(C)C)C(=O)N[C@@H](CCCCN)C(=O)N[C@@H](CCCCN)C(=O)N[C@@H](CC(C)C)C(=O)N[C@@H](CC(C)C)C(N)=O)S(=O)(=O)c1ccc([N+](=O)[O-])cc1 (X10-[X2]KLLKKLL-NH2) | 256 | –
COc1ccc(S(=O)(=O)N(CC(N)=O)C[C@H](CC(C)C)NC(=O)[C@H](CCCCN)NC(=O)[C@H](CCCCN)NC(=O)[C@H](CC(C)C)NC(=O)[C@H](CC(C)C)NC(=O)[C@H](CCCCN)NC(=O)[C@H](CC(C)C)NC(=O)[C@@H](N)Cc2ccccc2)cc1 (H-FLKLLKK-X6) | 256 | –
Cc1ccc(S(=O)(=O)N(CC(=O)N[C@@H](CCCCN)C(=O)N[C@@H](CC(C)C)C(=O)N[C@@H](CC(C)C)C(=O)N[C@@H](CCCCN)C(=O)N[C@@H](CCCCN)C(=O)N[C@@H](CC(C)C)C(=O)N[C@@H](CC(C)C)C(N)=O)C[C@@H](N)CC(C)C)cc1 (Tos-[X2]KLLKKLL-NH2) | 32 | –
C[C@H]1[C@H](NC(=O)/C(=N\OC(C)(C)C(=O)O)c2csc(N)n2)C(=O)N1S(=O)(=O)O [AZTREONAM] | – | fold change (FC) (Pseudomonas aeruginosa [4]): 2; fold change (FC) (Pseudomonas aeruginosa [5]): 32
CC(C)C[C@H](N)CN(CC(=O)N[C@@H](CCCCN)C(=O)N[C@@H](CC(C)C)C(=O)N[C@@H](CC(C)C)C(=O)N[C@@H](CCCCN)C(=O)N[C@@H](CCCCN)C(=O)N[C@@H](CC(C)C)C(=O)N[C@@H](CC(C)C)C(N)=O)S(=O)(=O)c1ccc(C(=S)Nc2ccc(-c3c4ccc(=O)cc-4oc4cc(O)ccc34)c(C(=O)O)c2)cc1 (X26-[X2]KLLKKLL-NH2) | – | Activity (Cell membrane): Active
CC(C)(O/N=C(\C(=O)N[C@@H]1C(=O)N2C(C(=O)[O-])=C(C[n+]3ccccc3)CS[C@H]12)c1csc(N)n1)C(=O)O [CEFTAZIDIME] | – | fold change (FC) (Pseudomonas aeruginosa [5]): 256
CC(C)C[C@H](NC(=O)[C@H](CC(C)C)NC(=O)[C@H](CCCCN)NC(=O)[C@H](CC(C)C)NC(=O)[C@@H](N)Cc1ccccc1)C(=O)N[C@@H](CCCCN)C(=O)N[C@@H](CCCCN)C(=O)N[C@@H](Cc1ccccc1)CN(CC(N)=O)S(=O)(=O)c1ccc([N+](=O)[O-])cc1 (H-FLKLLKK-X12) | 256 | –
COc1ccc(S(=O)(=O)N(CC(=O)N[C@@H](CCCCN)C(=O)N[C@@H](CC(C)C)C(=O)N[C@@H](CC(C)C)C(=O)N[C@@H](CCCCN)C(=O)N[C@@H](CCCCN)C(=O)N[C@@H](CC(C)C)C(=O)N[C@@H](CC(C)C)C(N)=O)C[C@@H](N)Cc2ccccc2)cc1 ({Benzenesulfonyl(4-OMe)}-[X3]KLLKKLL-NH2) | 256 | –
CN[C@H](CC(C)C)C(=O)N[C@H]1C(=O)N[C@@H](CC(N)=O)C(=O)N[C@H]2C(=O)N[C@H]3C(=O)N[C@H](C(=O)N[C@H](C(=O)O)c4cc(O)cc(O)c4-c4cc3ccc4O)[C@H](O)c3ccc(c(Cl)c3)Oc3cc2cc(c3O[C@@H]2O[C@H](CO)[C@@H](O)[C@H](O)[C@H]2O[C@H]2C[C@](C)(N)[C@H](O)[C@H](C)O2)Oc2ccc(cc2Cl)[C@H]1O | – | Activity (Staphylococcus aureus [6]): Active
CC(C)C[C@H](NC(=O)[C@H](CC(C)C)NC(=O)[C@H](CCCCN)NC(=O)[C@H](CC(C)C)NC(=O)[C@@H](N)Cc1ccccc1)C(=O)N[C@@H](CCCCN)C(=O)N[C@@H](CCCCN)C(=O)N[C@@H](Cc1ccccc1)CN(CC(N)=O)S(=O)(=O)c1ccc(F)cc1 (H-FLKLLKK-X23) | 256 | –
CC(C)C[C@@H](CN(CC(N)=O)S(=O)(=O)c1ccc([N+](=O)[O-])cc1)NC(=O)[C@H](CCCCN)NC(=O)[C@H](CCCCN)NC(=O)[C@H](CC(C)C)NC(=O)[C@H](CC(C)C)NC(=O)[C@H](CCCCN)NC(=O)[C@H](CC(C)C)NC(=O)[C@@H](N)Cc1ccccc1 (H-FLKLLKK-X11) | 256 | –
CC(C)C[C@H](NC(=O)[C@H](CC(C)C)NC(=O)[C@H](CCCCN)NC(=O)[C@H](CC(C)C)NC(=O)[C@@H](N)Cc1ccccc1)C(=O)N[C@@H](CCCCN)C(=O)N[C@@H](CCCCN)C(=O)N[C@@H](Cc1ccccc1)CN(CC(N)=O)S(=O)(=O)c1ccc(I)cc1 (H-FLKLLKK-X15) | 128 | –
CC(C)C[C@H](N)CN(CC(=O)N[C@@H](CCCCN)C(=O)N[C@@H](CC(C)C)C(=O)N[C@@H](CC(C)C)C(=O)N[C@@H](CCCCN)C(=O)N[C@@H](CCCCN)C(=O)N[C@@H](CC(C)C)C(=O)N[C@@H](CC(C)C)C(N)=O)S(=O)(=O)c1ccc(F)cc1 ({Benzenesulfonyl(4-F)}-[X2]KLLKKLL-NH2) | 256 | –
CC(C)C[C@@H](CN(CC(N)=O)S(=O)(=O)c1ccc(I)cc1)NC(=O)[C@H](CCCCN)NC(=O)[C@H](CCCCN)NC(=O)[C@H](CC(C)C)NC(=O)[C@H](CC(C)C)NC(=O)[C@H](CCCCN)NC(=O)[C@H](CC(C)C)NC(=O)[C@@H](N)Cc1ccccc1 (H-FLKLLKK-X8) | 256 | –
C[C@@H](O)[C@H]1C(=O)N2C(C(=O)O)=C(SCCNC=N)C[C@H]12 [IMIPENEM ANHYDROUS] | – | fold change (FC) (Pseudomonas aeruginosa [4]): 1; fold change (FC) (Pseudomonas aeruginosa [5]): 16
CC(C)C[C@@H](CN(CC(N)=O)S(=O)(=O)c1c(C(C)C)cc(C(C)C)cc1C(C)C)NC(=O)[C@H](CCCCN)NC(=O)[C@H](CCCCN)NC(=O)[C@H](CC(C)C)NC(=O)[C@H](CC(C)C)NC(=O)[C@H](CCCCN)NC(=O)[C@H](CC(C)C)NC(=O)[C@@H](N)Cc1ccccc1 (H-FLKLLKK-X14) | 32 | –
CC(C)C[C@H](NC(=O)[C@H](CC(C)C)NC(=O)[C@H](CCCCN)NC(=O)[C@H](CC(C)C)NC(=O)[C@@H](N)Cc1ccccc1)C(=O)N[C@@H](CCCCN)C(=O)N[C@@H](CCCCN)C(=O)N[C@@H](Cc1ccccc1)CN(CC(N)=O)S(=O)(=O)c1ccc(Cl)cc1 (H-FLKLLKK-X18) | 128 | –
CC(C)C[C@@H](CN(CC(N)=O)S(=O)(=O)c1ccc(F)cc1)NC(=O)[C@H](CCCCN)NC(=O)[C@H](CCCCN)NC(=O)[C@H](CC(C)C)NC(=O)[C@H](CC(C)C)NC(=O)[C@H](CCCCN)NC(=O)[C@H](CC(C)C)NC(=O)[C@@H](N)Cc1ccccc1 (H-FLKLLKK-X22) | 256 | –
